Assay results reported in US6906057B1, “Methods for modulating FXR receptor activity” (Allergan, Inc., priority 1999, dated 2005).
Residue numbers refer to the chain shown, from its start.

Assays:
FXR-RXRα complex = target: T1, FXR-RXRα complex (UniProt P19793+Q62735); conditions: Forman et al., Cell 81:687-693 (1995); cited from earlier work
T1 sequence (Q62735 1-469): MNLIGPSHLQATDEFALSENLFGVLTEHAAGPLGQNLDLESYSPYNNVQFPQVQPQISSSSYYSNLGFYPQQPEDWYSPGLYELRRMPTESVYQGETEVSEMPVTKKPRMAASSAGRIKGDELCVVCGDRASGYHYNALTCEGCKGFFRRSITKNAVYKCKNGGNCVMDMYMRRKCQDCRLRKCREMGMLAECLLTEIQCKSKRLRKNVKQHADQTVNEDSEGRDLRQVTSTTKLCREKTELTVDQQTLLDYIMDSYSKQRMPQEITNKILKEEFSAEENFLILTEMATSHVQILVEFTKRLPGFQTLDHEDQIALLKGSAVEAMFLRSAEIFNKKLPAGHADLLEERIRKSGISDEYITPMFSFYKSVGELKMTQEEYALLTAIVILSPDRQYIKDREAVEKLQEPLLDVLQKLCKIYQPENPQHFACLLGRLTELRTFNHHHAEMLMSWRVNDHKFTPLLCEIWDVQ
T1 sequence (P19793 1-462): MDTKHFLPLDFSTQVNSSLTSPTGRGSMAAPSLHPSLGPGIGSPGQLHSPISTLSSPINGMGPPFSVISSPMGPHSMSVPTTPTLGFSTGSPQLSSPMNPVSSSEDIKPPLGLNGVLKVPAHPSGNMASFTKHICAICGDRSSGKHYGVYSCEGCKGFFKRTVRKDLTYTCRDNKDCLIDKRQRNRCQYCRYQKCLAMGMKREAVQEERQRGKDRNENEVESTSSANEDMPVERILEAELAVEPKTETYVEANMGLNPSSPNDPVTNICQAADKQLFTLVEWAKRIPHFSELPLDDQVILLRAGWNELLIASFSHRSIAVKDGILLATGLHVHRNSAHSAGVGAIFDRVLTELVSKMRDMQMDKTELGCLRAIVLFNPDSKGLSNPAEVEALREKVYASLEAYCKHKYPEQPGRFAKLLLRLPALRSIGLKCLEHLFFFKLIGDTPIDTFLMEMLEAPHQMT

FXR-RXRm heterodimer = target: T2, FXR-RXRm heterodimer (Rattus norvegicus, UniProt Q62735); experiment: EcRE-TK-Luc transactivation in CV-1 cells cotransfected with FXR and RXRm; type: cell-based; conditions: for transactivation activity, cells cotransfected with FXR and RXRm: Example 5, FIG. 6; for FXR transactivating activity: Example 3, FIG. 3, FXR-RXRm, 100 nM unless otherwise indicated, AGN 10 10 μM
T2 construct: Full-length recombinant rat FXR and human RXR (or RXRm) cloned into the cloning site of plasmid pCMX; expressed in transfected cells; host or cells: CV-1 cells
T2 sequence (Q62735 1-469): T1 sequence (Q62735 1-469)
T2 sequence (P19793 1-462 D322P partner): T1 sequence (P19793 1-462) with D322P
Source text: Because FXR is known to bind to its response element as a heterodimer with RXR, and because the heterodimer can be activated by ligands to RXR, a mutant RXRα protein (RXRm; also referred to as D322P in the Figures) was constructed containing a single point mutation (Asp322 to Pro) in the ligand binding domain of RXR. The use of FXR-RXRm heterodimers, permits unambiguous identification of modulators of FXR activity amongst test compounds.
(§1) Full-length recombinant rat FXR and human RXR (or RXRm) cloned into the cloning site of plasmid pCMX were cotransfected into CV-1 cells using the transient transfection method substantially as described above. Additionally, reporter plasmids were cotransfected with the expression plasmids as described above.
(§2) Luciferase reporter plasmids TK-Luc (described in Heyman et al., Cell 68:397 (1992), hereby incorporated by reference herein) were constructed by placing the firefly luciferase cDNA coding sequence in frame immediately downstream from the herpes virus thymidine kinase promoter (located at nucleotide residues −105 to +51) of the thymidine kinase nucleotide sequence). Six repeats of the EcRE response element, to which the DNA binding domain (DBD) of FXR binds, was also included upstream of the reporter gene. Further details are provided above.
(§3) AGN 10 has the structure: [drawing 3]
(§4) The cells were then lysed as described above, and luciferase activity was measured as an indication of the extent of heterodimer-induced FXR transactivation activity as described above Results are shown in FIG. 2.
CV-1 cells were cotransfected with mammalian expression vectors encoding full length FXR and RXRm, as well as with the luciferase reporter plasmid used in the last experiment. […] All compounds were dissolved in DMSO, except glycochenodeoxycholic acid, taurochenodeoxycholic acid, taurodeoxycholic acid and taurocholic acid, which were dissolved in phosphate buffered saline (PBS). Following exposure to the compounds, the cells were washed, lysed, and the luciferase activity measured as indicated above.
(§5) These compounds were assayed for FXR modulating activity using the transactivation assay described above. All compounds were dissolved in DMSO. As above, the reporter plasmid contained 6 copies of the ecdysone response element (EcRE) placed along with the herpes virus thymidine kinase promoter upstream of the firefly luciferase gene. The reporter plasmid was transfected into CV-1 cells, either a) alone, b) with an expression plasmid encoding full length FXR, c) with an expression plasmid encoding full length RXRα, d) with two expression plasmids encoding full length FXR and RXRα respectively, and e) with two expression plasmids encoding full length FXR and RXRm, respectively. Plasmid constructions, transfection, incubation with test compounds, and luciferase activity assays were performed as described in Example 1.

FXR-RXRα heterodimer = target: T3, FXR-RXRα heterodimer (UniProt P19793+Q62735); experiment: EcRE-TK-Luc transactivation in CV-1 cells cotransfected with FXR and RXR; type: cell-based, rat; conditions: for luciferase activity response, cells cotransfected with FXR and RXRα: Example 5, FIG. 6; for FXR activity as stated for panel compounds: Example 5 panel description, JH III 50 μM
T3 construct: Full-length recombinant rat FXR and human RXR (or RXRm) cloned into the cloning site of plasmid pCMX; expressed in transfected cells; host or cells: CV-1 cells
T3 sequence (Q62735 1-469): T1 sequence (Q62735 1-469)
T3 sequence (P19793 1-462): T1 sequence (P19793 1-462)
Source text: as §1, §2, §3, §4
Transient cotransfection of full length rat FXR, human RXR and the luciferase reporter plasmid was performed as above. A set of cotransfectant CV-1 cells was incubated in 1, 2, 10, and 20 μM AGN 10. Separate sets of cotransformants were given 1, 10, 20, 100, and 200 μM of either CDCA, DCA or LCA. All compounds were dissolved in DMSO. All transformant cells were permitted to incubate for approximately 44 hours with the indicated compound, then the amount of transactivation activity was measured using the luciferase assay, as indicated above.
as §5

FXR or RXR alone = conditions: Forman et al., Cell 81:687-693 (1995); cited from earlier work
[1] = Example 2, FIG. 2, ~44 hours, AGN 10 5-10 μM, LG 268 100 nM, bovine bile extract

## CC(C)=CCC/C(C)=C/CO [geraniol]
FXR-RXRα complex
  activation of the FXR-RXR complex: did not activate

## CC(C)CCC[C@@H](C)[C@H]1CC[C@H]2[C@@H]3CC=C4C[C@@H](O)CC[C@]4(C)[C@H]3CC[C@]12C [cholesterol]
FXR-RXRα complex
  activation of the FXR-RXR complex: did not activate

## C/C(=C\c1ccc(C(=O)O)cc1)c1ccc2c(c1)C(C)(C)CCC2(C)C [TTNPB]
FXR-RXRm heterodimer
  transactivation activity, cells cotransfected with FXR and RXRm: significant levels of transctivation activity
FXR-RXRα heterodimer
  luciferase activity response, cells cotransfected with FXR and RXRα: highest activity response
  FXR activity as stated for panel compounds: has FXR activity

## CC(C)=CCCC(C)=CCCC(C)=CC(=O)O [farnesoic acid]
FXR-RXRα complex
  activation of the FXR-RXR complex: somewhat less strongly

## CC1(C)CCC(C)(C)c2cc(/C(=C/c3ccc(C(=O)C(=O)O)cc3)[Si](C)(C)C)ccc21 [AGN 10]
FXR-RXRm heterodimer; [1]
  FXR-mediated transactivation (luciferase activity), FXR-RXRm cotransfected cells: almost as much activity
FXR-RXRm heterodimer; ~44 hours
  FXR transactivating activity: measurable FXR transactivating activity
FXR-RXRm heterodimer
  transactivation activity, cells cotransfected with FXR and RXRm: significant levels of transctivation activity
FXR-RXRm heterodimer; Example 5, conclusion
  FXR ligand classification from the data: FXR agonists
FXR-RXRα heterodimer; [1]
  FXR-mediated transactivation (luciferase activity), FXR-RXR cotransfected cells: almost as much activity
FXR-RXRα heterodimer; Example 4, FIG. 4, rat FXR, human RXR, ~44 hours
  concentration at which FXR agonist activity is at a maximum: 10 µM
FXR-RXRα heterodimer
  luciferase activity response, cells cotransfected with FXR and RXRα: highest activity response

## CC1(C)CCC(C)(C)c2cc(C(=O)Nc3ccc(C(=O)O)cc3)ccc21 [Am 580]
FXR-RXRα heterodimer
  FXR activity as stated for panel compounds: does not have FXR activity

## C[C@H](CCC(=O)O)[C@H]1CC[C@H]2[C@@H]3C(=O)C[C@@H]4C[C@H](O)CC[C@]4(C)[C@H]3CC[C@]12C [7-ketolithocholic acid]
FXR-RXRm heterodimer; ~44 hours
  FXR transactivating activity: measurable FXR transactivating activity

## CC(C)=CCC/C(C)=C/CC/C(C)=C/CC/C=C(\C)CC/C=C(\C)CCC=C(C)C [squalene]
FXR-RXRα complex
  activation of the FXR-RXR complex: did not activate

## C[C@H](CCC(=O)O)[C@H]1CC[C@H]2[C@@H]3C(=O)C[C@@H]4CC(=O)CC[C@]4(C)[C@H]3CC[C@]12C [3-7-diketolithocholic acid, 3,7-diketolithocholic acid]
FXR-RXRm heterodimer; ~44 hours
  FXR transactivating activity: measurable FXR transactivating activity

## juvenile hormone III
FXR-RXRα heterodimer
  FXR activity as stated for panel compounds: an FXR agonist
FXR or RXR alone
  activation of FXR or RXR alone: does not activate
FXR-RXRα complex
  activation of the FXR-RXR complex: activated

## CC(C)=CCCC(C)=CCCC(C)=CC=O [farnesal]
FXR-RXRα complex
  activation of the FXR-RXR complex: somewhat less strongly

## CC(C)=CCC/C(C)=C/CC/C(C)=C/CC/C(C)=C/CO [geranylgeraniol]
FXR-RXRα complex
  activation of the FXR-RXR complex: somewhat less strongly
